Patent US6162925A, “Antibiotic for methicillin resistant bacteria” (Research Corporation Tech., Inc., priority 1999, dated 2000)
Converted amounts (≈) assume the structure as drawn.

Columns and labels:
[1] = tested on: Staphylococcus aureus sa ATCC 13709; experiment: MIC, broth microdilution (NCCLS), S. aureus sa ATCC 13709; assay type: cell-based; conditions: ATCC13709, S. aureus sa ATCC 13709, Smith strain, 35° C., 20 h, read-out: Minimal Inhibitory Concentration (MIC)
Protocol: (§1) Test compounds were assayed against Staphylococcus aureus FDA 209P by the 10 fold agar disc diffusion assay on BHI-plates at pH=7 and pH=9 in accordance with the procedure from the National Committee for Clinical Laboratory Standards 1989. Susceptibility testing. A panel of 16 bacteria was used to evaluate the antimicrobial activity of the compounds (Table 2). The MIC of each antimicrobial agent was determined using a microdilution method according to NCCLS standards^1. Serial twofold dilutions of antibiotics were prepared in Mueller-Hinton broth (Difco Laboratories, Detroit, Mich.). Bacteria were grown to early log phase at 35° C. (1 hours) in Mueller-Hinton broth and cultures were diluted to achieve a final inoculum of 5×10^5 CFU per ml. Microtiter plates were incubated at 35° C. for 20 h and then were read using a Thermomax microplate reader (Molecular Devices, Sunnyvale, Calif.) and a microtiter plate reading mirror. The MIC was defined as the lowest concentration of antibiotic which inhibited the development of visible growth at the end of the incubation period. The standard reference strains were Staphyloccocus aureus ATCC […], Enterococcus faecalis ATCC 29212, E. faecium ATCC 35667, Escherichia coli ATCC 25922, and Pseudomonas aeruginosa ATCC 27853. Imipenem and vancomycin were used as antibiotic controls and values for reference strains were in accordance with the NCCLS.

[2] = tested on: Staphylococcus aureus ATCC 33593; experiment: MIC, broth microdilution (NCCLS), S. aureus ATCC 33593; assay type: cell-based; conditions: ATCC33593, S. aureus ATCC 33593, methicillin resistant, β-lactamase positive, 35° C., 20 h, read-out: Minimal Inhibitory Concentration (MIC)
Protocol: as §1
Staphylococcus ATCC Methicillin
aureus ATCC 33593 resistant, β-

[3] = tested on: Escherichia coli ATCC 25922; experiment: MIC, broth microdilution (NCCLS), E. coli ATCC 25922; assay type: cell-based; conditions: ATCC25922, E. coli ATCC 25922, reference strain, 35° C., 20 h, read-out: Minimal Inhibitory Concentration (MIC)
Protocol: as §1

[4] = tested on: Staphylococcus aureus PC1; experiment: MIC, broth microdilution (NCCLS), S. aureus PC1; assay type: cell-based; conditions: S. aureus PC1, Type A βlactamase hyperproducer, 35° C., 20 h, read-out: Minimal Inhibitory Concentration (MIC)
Protocol: as §1
Staphylococcus Type A βlactamase
aureus PC1 hyperproducer

[5] = tested on: Enterococcus faecalis ATCC 29212; experiment: MIC, broth microdilution (NCCLS), E. faecalis ATCC 29212; assay type: cell-based; conditions: ATCC29212, E. faecalis ATCC 29212, reference strain, 35° C., 20 h, read-out: Minimal Inhibitory Concentration (MIC)
Protocol: as §1
(§2) Enterococcus ATCC Reference strain

[6] = tested on: Enterococcus faecium ATCC 35667; experiment: MIC, broth microdilution (NCCLS), E. faecium ATCC 35667; assay type: cell-based; conditions: ATCC35667, E. faecium ATCC 35667, reference strain, 35° C., 20 h, read-out: Minimal Inhibitory Concentration (MIC)
Protocol: as §1, §2

[7] = cited from earlier work
[8] = tested on: Enterococcus faecium efm040; experiment: MIC, broth microdilution (NCCLS), E. faecium efm040; assay type: cell-based; conditions: E. faecium efm040, clinical isolate U.S.A., ampicillin resistant, 35° C., 20 h, read-out: Minimal Inhibitory Concentration (MIC)
Protocol: as §1
Enterococcus Clinical isolate,
faecium efm040 U.S.A. resistant

[9] = tested on: Staphylococcus aureus ATCC 29213; experiment: MIC, broth microdilution (NCCLS), S. aureus ATCC 29213; assay type: cell-based; conditions: ATCC29213, S. aureus ATCC 29213, reference strain, 35° C., 20 h, read-out: Minimal Inhibitory Concentration (MIC)
Protocol: as §1
Staphylococcus ATCC Reference strain

MRSA = conditions: cited from earlier work
[10] = tested on: Pseudomonas Aeruginosa ATCC 27853; experiment: MIC, broth microdilution (NCCLS), P. aeruginosa ATCC 27853; assay type: cell-based; conditions: ATCC27853, P. aeruginosa ATCC 27853, reference strain, 35° C., 20 h, read-out: Minimal Inhibitory Concentration (MIC)
Protocol: as §1

[11] = cited from earlier work; remark: listed apart in the source
[12] = tested on: Staphylococcus aureus COL8A; experiment: MIC, broth microdilution (NCCLS), S. aureus COL8A; assay type: cell-based; conditions: 20 h, read-out: Minimal Inhibitory Concentration (MIC)
Protocol: as §1
(§3) Staphylococcus Methicillin
aureus COL8A susceptible, […]

[13] = tested on: Gram-positive and Gram-negative bacteria; conditions: S- versus R-configuration in the heterocyclic portion; cited from earlier work
[14] = tested on: Staphylococcus aureus sa201; experiment: MIC, broth microdilution (NCCLS), S. aureus sa201; assay type: cell-based; conditions: S. aureus sa201, clinical isolate Spain, methicillin resistant, β-lactamase positive, 35° C., 20 h, read-out: Minimal Inhibitory Concentration (MIC)
Protocol: as §1
Staphylococcus Clinical isolate,
aureus sa201 Spain resistant, β-

[15] = tested on: Staphylococcus aureus COL; experiment: MIC, broth microdilution (NCCLS), S. aureus COL; assay type: cell-based; conditions: S. aureus COL, methicillin resistant, β-lactamase negative, 35° C., 20 h, read-out: Minimal Inhibitory Concentration (MIC)
Protocol: as §1, §3
aureus COL resistant, β-

Staphylococcus aureus 76 = experiment: MIC, broth microdilution (NCCLS), S. aureus 76; assay type: cell-based; conditions: Staphylococcus aureus; S. aureus 76, methicillin resistant, β-lactamase positive; 35° C., 20 h; read-out: Minimal Inhibitory Concentration (MIC)
Protocol: as §1, §3

[16] = tested on: Staphylococcus haemolyticus UA281; experiment: MIC, broth microdilution (NCCLS), S. haemolyticus UA281; assay type: cell-based; conditions: S. haemolyticus UA281, methicillin resistant, 35° C., 20 h, read-out: Minimal Inhibitory Concentration (MIC)
Protocol: as §1, §3
haemolyticus UA281 resistant

[17] = tested on: Enterococcus faecium BM4147; experiment: MIC, broth microdilution (NCCLS), E. faecium BM4147; assay type: cell-based; conditions: E. faecium BM4147, vancomycin resistant, vanA, 35° C., 20 h, read-out: Minimal Inhibitory Concentration (MIC)
Protocol: as §1
Enterococcus Vancomycin
faecium BM4147 resistant, vanA

[18] = Stability in 0.1 M phosphate buffer pH=5; assay type: physicochemical; conditions: 0.1 M phosphate buffer at pH=5
Protocol: Compound 36 (10 mg, 0.012 mmol) was treated with anisole (0.1 mL) and TFA (1.0 mL) at 0° C. The mixture was stirred for 1 h at room temperature, concentrated and purified by PTLC (silica gel, CH2 Cl2 : MeOH, 6:1) to give 6.0 mg of a semi-solid. To a solution of this substance (6 mg, 0.0066 mmol, 1.0 eq) in MeOH (1.0 mL)/CH2 Cl2 (0.5 mL) was added PdCl2 (8.0 mg) After degassing with N2, the reaction mixture was charged with H2 (1 atm.) and the mixture was hydrogenated for 10 min. The mixture was then purged with nitrogen, and filtered to remove the catalyst. The filtrate was concentrated and dried in vacuo to give a 2HCl salt of TAN-1057 C/D (1:1, 3 mg ~100% yield) as an amorphous solid. ^1 H NMR (300 MHz, DMSO-d6 vs TMS): δ1.51 (4H, m); 2.82 (3H, s); 2.70-2.90 (2H, m); 3.09 (2H, m); 3.43 (1H, m); 3.79 (2H, m); 4.66 (1/2H, m); 4.75 (1/2H, m); 7.26 (6H, m); 7.86 (1H, br); 8.06 (1H, br); 8.70 (2H, br); 9.15 (1H, br); 10.35 (1H, br) ppm. MS (FAB): Calcd. for (C13 H25 N9 O3 +H)=356.2. Found: (M+H)=356.3; (M+2H)^++ =178.7.

[19] = Antibiotic activity by bioassay against authentic TAN-1057 A/B; assay type: cell-based; conditions: compared with authentic TAN-1057 A/B (Takeda)
Protocol: To a solution of 29 (40 mg, 0.045 mmol, 1.0 eq) in MeOH (1.5 mL)/CH2 Cl2 (0.5 mL) was added PdCl2 (40 mg). The reaction flask was degassed and charged with H2 (1 atm). The mixture was stirred for 30 min. The mixture was then purged with nitrogen, and filtered to remove the catalyst. The filtrate was concentrated and dried in vacuo to give a 2HCl salt of TAN-1057 A/B (1/2) (1:1, 20 mg, 100% yield) as an amorphous solid. This product was identical in mobility by HPLC, mnr and antibiotic activity by bioassay to authentic TAN-1057 A/B (Takeda). ^1 HNMR (300 MHz, D2 O): δ1.77 (4H, m); 2.85 (1H, dd, J=18, 9.3 Hz); 3.00 (1H, dd, J=18, 4.0 Hz); 3.17 (3H, s); 3.27 (2H, t, J=6.0 Hz); 3.70 (1H, m); 3.99 (2H, m); 5.14 (1H, dd, J=12, 8.5 Hz) ppm; IR (KBr pellet): 3350, 3179, 2955, 1696, 1622, 1395, 1205, 1135 cm^1. MS (ES^+): Calcd. (C13 H25 N9 O3 +H)=356.2, Found (M+H)=356.4.

For `CN(C(=O)C[C@@H](N)CCCNC(=N)N)[C@H]1CNC(NC(N)=O)=NC1=O` [TAN-1057A], the MIC [1] was 16 µg/mL (≈ 45 µM), the MIC [2] was 16 µg/mL (≈ 45 µM) and the MIC [3] was 256 µg/mL (≈ 720 µM). The MIC [4] was 8 µg/mL (≈ 22.5 µM), the MIC [5] was 32 µg/mL (≈ 90 µM) and the MIC [6] was 32 µg/mL (≈ 90 µM). The “comparison to vancomycin in mice” value [7] was “compare very favorably to vancomycin in mice”, the MIC [8] was 128 µg/mL (≈ 360 µM) and the MIC [9] was 16 µg/mL (≈ 45 µM). The “activity against MRSA” value (MRSA) was “potent activity against all of the MRSA strains evaluated”, the MIC [10] was 256 µg/mL (≈ 720 µM) and the hydrolysis ([11]; acidic and basic media, racemization of α-amino acid stereogenic center) was “occurs in both acidic and basic media”. The “loss of antibacterial activity in basic aqueous solutions” value ([11]; basic aqueous solutions, hydrolytic opening of six-membered ring) was “gradually lost their antibacterial activities in basic aqueous solutions”, the MIC [12] was 16 µg/mL (≈ 45 µM) and the “relative antibacterial activity of stereoisomers” value [13] was “more active than TAN-1057 B and C”. The MIC [14] was 16 µg/mL (≈ 45 µM), the MIC [15] was 16 µg/mL (≈ 45 µM) and the MIC (Staphylococcus aureus 76) was 16 µg/mL (≈ 45 µM). For the same compound, the MIC [16] was 32 µg/mL (≈ 90 µM) and the MIC [17] was 32 µg/mL (≈ 90 µM).
In the case of `CN1C(=O)C[C@H](CCCNC(=N)N)NC(=O)C1CNC(=N)NC(N)=O` (stereo partly drawn) [TAN-1057 C/D, [[[[5-[3-[(aminoiminomethyl)amino]propyl]hexahydro-(2S/R,5S)-1-methyl-3,7-dioxo-1H-1,4-diazepin-2-yl]methyl]amino]iminomethyl]urea], the “reversion upon standing in phosphate buffer” value [18] is reported as “reverted to a mixture of 1 and 2”.
In the case of `CN(C(=O)C[C@@H](N)CCCNC(=N)N)C1CNC(NC(N)=O)=NC1=O` (stereo partly shown) [TAN-1057 A/B, 3S,5'S/R-3-amino-6-[(aminoiminomethyl)amino]-N-[2-[(aminocarbonyl)amino]-1,4,5,6-tetrahydro-4-oxo-5-pyrimidinyl)-N-methyl-hexanamide], the “antibiotic activity by bioassay” value [19] is reported as “identical”.
